In one test the target is T1, Oxytocin receptor (Rattus norvegicus, UniProt P70536).
T1 sequence (P70536 whole entry): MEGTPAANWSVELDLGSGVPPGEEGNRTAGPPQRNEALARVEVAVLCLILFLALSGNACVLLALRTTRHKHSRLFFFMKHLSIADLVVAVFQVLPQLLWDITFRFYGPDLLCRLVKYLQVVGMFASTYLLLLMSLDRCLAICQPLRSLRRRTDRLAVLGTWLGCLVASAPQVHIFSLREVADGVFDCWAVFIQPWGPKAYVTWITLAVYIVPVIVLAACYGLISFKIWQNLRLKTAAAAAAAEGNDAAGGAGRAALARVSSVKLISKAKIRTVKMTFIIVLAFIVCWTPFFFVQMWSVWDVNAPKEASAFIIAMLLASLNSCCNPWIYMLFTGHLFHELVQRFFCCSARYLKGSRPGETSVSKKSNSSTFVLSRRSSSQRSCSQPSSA
In words: Concentration required to displace 50% of [3H]oxytocin from rat uterine receptor.

The target in a further test is Vasopressin V1a receptor (Rattus norvegicus, UniProt P30560). In words: Concentration required to displace 50% of [3H]arginine vasopressin from rat liver arginine vasopressin 1A (AVP-V1a) site.
In a further test the target is Vasopressin V2 receptor (Rattus norvegicus, UniProt Q00788). In words: Inhibition of [3H]arginine vasopressin binding to AVP-V2 site in rat kidney medulla. The class given is tissue-based.
The target in test [1] is Vasopressin V1a receptor (Rattus norvegicus) (UniProt P30560). In words: Displacement of [3H]arginine vasopressin from rat liver (AVP-V1a site) at 10 uM.
Test [2] concerns the target Vasopressin V2 receptor (Rattus norvegicus) (UniProt Q00788). In words: Displacement of [3H]arginine vasopressin from rat kidney medullary (AVP-V2 site) at 10 uM. Type of test: tissue-based. For orientation: In a radioligand displacement assay an active substance lowers the binding of a labelled ligand.

pIC50: −log10 of the molar value. Where a SMILES comes first, the peptide text is derived from it. [ ]: non-standard residue; d: D form. Piz(1,6-dehydro) = O=C(O)[C@@H]1CCC=NN1; dPiz(1,6-dehydro) = O=C(O)[C@H]1CCC=NN1; d1Nal = N[C@H](Cc1cccc2ccccc12)C(=O)O; dNMeH = CN[C@H](Cc1c[nH]cn1)C(=O)O; dNMeF = CN[C@H](Cc1ccccc1)C(=O)O; Pip = O=C(O)[C@@H]1CCCCN1; dPip = O=C(O)[C@H]1CCCCN1; NMeA = CN[C@@H](C)C(=O)O; Nle = CCCC[C@H](N)C(=O)O; Orn = NCCC[C@H](N)C(=O)O; dNMeA = CN[C@H](C)C(=O)O

Usually pIC50 stands for the negative decadic logarithm of the IC50, by convention in mol/L. Broadly, the inhibition is how much of the control response was suppressed. High values mean strong suppression, low ones little suppression.

Sequence of Vasopressin V1a receptor (Rattus norvegicus) (P30560 whole entry, looked up): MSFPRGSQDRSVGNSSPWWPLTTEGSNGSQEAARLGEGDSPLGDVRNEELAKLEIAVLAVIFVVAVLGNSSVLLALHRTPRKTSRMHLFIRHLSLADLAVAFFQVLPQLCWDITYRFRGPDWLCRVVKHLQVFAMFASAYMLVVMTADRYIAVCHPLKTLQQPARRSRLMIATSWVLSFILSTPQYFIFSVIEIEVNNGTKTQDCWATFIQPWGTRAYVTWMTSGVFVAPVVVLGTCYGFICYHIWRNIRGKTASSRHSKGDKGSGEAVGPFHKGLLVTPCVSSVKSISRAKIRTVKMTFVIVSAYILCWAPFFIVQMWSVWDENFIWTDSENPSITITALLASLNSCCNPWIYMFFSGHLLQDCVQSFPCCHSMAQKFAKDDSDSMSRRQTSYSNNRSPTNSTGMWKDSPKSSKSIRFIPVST
Sequence of Vasopressin V1a receptor (P30560 whole entry): as the sequence (P30560 whole entry, looked up) above
Sequence of Vasopressin V2 receptor (Rattus norvegicus) (Q00788 whole entry): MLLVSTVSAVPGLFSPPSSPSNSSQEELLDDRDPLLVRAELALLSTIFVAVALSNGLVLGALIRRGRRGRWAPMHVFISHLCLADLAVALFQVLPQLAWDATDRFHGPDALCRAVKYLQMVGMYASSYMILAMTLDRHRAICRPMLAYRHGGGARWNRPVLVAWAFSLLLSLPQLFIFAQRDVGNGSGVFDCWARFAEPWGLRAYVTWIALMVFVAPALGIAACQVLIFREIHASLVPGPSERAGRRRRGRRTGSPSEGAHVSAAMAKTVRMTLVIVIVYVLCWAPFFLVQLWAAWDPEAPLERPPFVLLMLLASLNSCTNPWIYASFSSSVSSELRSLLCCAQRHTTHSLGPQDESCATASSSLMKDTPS
Sequence of Vasopressin V2 receptor (Q00788 whole entry): as above

`C[C@@H]1NC(=O)[C@@H](Cc2ccccc2)NC(=O)[C@@H]2CCCN2C(=O)[C@@H](Cc2ccccc2)N(C)C(=O)[C@@H]2CCCCN2C(=O)[C@H]2CCCCN2C1=O` had a pIC50 on Oxytocin receptor of 4.52.
In the case of `CC[C@H](C)[C@@H]1NC(=O)[C@@H](Cc2ccccc2)NC(=O)[C@@H]2CCCN2C(=O)[C@@H](Cc2ccccc2)N(C)C(=O)[C@H](CCCCN)NC(=O)[C@H]2CCCCN2C1=O`, the pIC50 is 5.70 on Vasopressin V1a receptor, 5.85 at Vasopressin V2 receptor and 6.80 on Oxytocin receptor.
The corresponding values for `CC[C@H](C)[C@@H]1NC(=O)[C@@H](Cc2ccccc2)NC(=O)[C@@H]2CCCN2C(=O)[C@@H](CCCCN)NC(=O)[C@@H]2CCCCN2C(=O)[C@H]2CCCCN2C1=O` (cyclo(I[dPip][Pip][dK]P[dF])) are 5.96, 5.13 and 6.39.
As for `CC(C)C[C@@H]1NC(=O)[C@@H](Cc2c[nH]c3ccccc23)NC(=O)[C@@H]2CCCN2C(=O)[C@@H](Cc2c[nH]cn2)NC(=O)[C@@H]2CCCCN2C(=O)[C@H]2CCCCN2C1=O` (cyclo(L[dPip][Pip][dH]P[dW])), the pIC50 is 5.52 at Vasopressin V1a receptor and 4.96 on Vasopressin V2 receptor.
As to `CC[C@H](C)[C@@H]1NC(=O)[C@@H](Cc2cn(C)c3ccccc23)NC(=O)[C@@H]2CCCN2C(=O)[C@@H](Cc2cnc[nH]2)NC(=O)[C@@H]2CCCCN2C(=O)[C@H]2CCCCN2C1=O`, the negative logarithm of the IC50 (pIC50) is 5.43 at Vasopressin V1a receptor, 5.89 on Vasopressin V2 receptor and 8.00 at Oxytocin receptor.
`CC[C@H](C)[C@@H]1NC(=O)[C@@H](Cc2ccccc2)NC(=O)[C@@H]2CCCN2C(=O)[C@@H](Cc2ccccc2)N(C)C(=O)[C@H](CC(=O)O)NC(=O)[C@H]2CCCCN2C1=O` (cyclo(D[dNMeF]P[dF]I[dPip])): the figures for the inhibition in test [1] and in test [2] were 0% and 12%, respectively. Moreover, on Oxytocin receptor, the pIC50 was 5.82.
For the compound `CC[C@H](C)[C@@H]1NC(=O)[C@@H](Cc2ccccc2)NC(=O)[C@@H]2CCCN2C(=O)[C@H](Cc2ccccc2)N(C)C(=O)[C@H](C)N(C)C(=O)[C@H]2CCCCN2C1=O`, the inhibition in test [1] was found to be 25%; in test [2], 34%.
Consider `CC[C@H](C)[C@@H]1NC(=O)[C@@H](Cc2ccccc2)NC(=O)[C@@H]2CCCN2C(=O)[C@@H](Cc2ccccc2)N(C)C(=O)[C@H](Cc2cnc[nH]2)NC(=O)[C@H]2CCCCN2C1=O`, for which, on Oxytocin receptor, the pIC50 was 6.66.
Take `CC[C@H](C)[C@@H]1NC(=O)[C@@H](Cc2ccccc2)NC(=O)[C@@H]2CCCN2C(=O)[C@@H](Cc2ccccc2)N(C)C(=O)[C@@H]2CCCCN2C(=O)[C@@H](C)N(C)C1=O` (cyclo(I[dNMeA][Pip][dNMeF]P[dF])): the inhibition came out at 20% in test [1] and 17% in test [2]. The pIC50 on Oxytocin receptor is 5.82.
`CC[C@H](C)[C@@H]1NC(=O)[C@@H](Cc2cccc3ccccc23)NC(=O)[C@@H]2CCCN2C(=O)[C@@H](Cc2cnc[nH]2)NC(=O)[C@@H]2CCCCN2C(=O)[C@H]2CCCCN2C1=O` (cyclo(I[dPip][Pip][dH]P[d1Nal])): the pIC50 is 6.12 at Vasopressin V1a receptor, 6.14 at Vasopressin V2 receptor and 8.08 at Oxytocin receptor.
Regarding `CC[C@H](C)[C@@H]1NC(=O)[C@@H](Cc2ccccc2)NC(=O)[C@H](C)N(C)C(=O)[C@@H](Cc2ccccc2)N(C)C(=O)[C@@H]2CCCCN2C(=O)[C@H]2CCCCN2C1=O` (cyclo(I[dPip][Pip][dNMeF][NMeA][dF])), the inhibition is 34% in test [1] and 37% in test [2]. At Oxytocin receptor, this compound showed a pIC50 of 6.03.
As for `CC[C@H](C)[C@@H]1NC(=O)[C@@H](Cc2ccccc2)NC(=O)[C@@H]2CCCN2C(=O)[C@@H](Cc2ccccc2)NC(=O)[C@@H]2CCCCN2C(=O)[C@H]2CCCCN2C1=O` (cyclo(I[dPip][Pip][dF]P[dF])), the pIC50 is 4.96 on Vasopressin V2 receptor and 6.47 on Oxytocin receptor.
Regarding `CC[C@H](C)[C@@H]1NC(=O)[C@@H](Cc2ccccc2)NC(=O)[C@@H]2CCCN2C(=O)[C@@H](Cc2ccccc2)N(C)C(=O)[C@H](C)N(C)C(=O)[C@H]2CCCCN2C1=O`, at Oxytocin receptor, the pIC50 is 5.57.
Take `CC[C@H](C)[C@@H]1NC(=O)[C@@H](Cc2cccc3ccccc23)NC(=O)[C@@H]2CCCN2C(=O)[C@@H](Cc2ccccc2)N(C)C(=O)[C@H](CCCCN)NC(=O)[C@H]2CCCCN2C1=O`: the figures for the pIC50 at Vasopressin V1a receptor, at Vasopressin V2 receptor and at Oxytocin receptor were 6.29, 6.82 and 7.35, respectively.
On to `C[C@@H]1NC(=O)[C@@H](Cc2ccccc2)NC(=O)[C@@H]2CCCN2C(=O)[C@H](Cc2ccccc2)N(C)C(=O)[C@@H]2CCCCN2C(=O)[C@H]2CCCCN2C1=O`, for which the inhibition in test [1] turned out to be 3%; in test [2], 2%.
`CC[C@H](C)[C@@H]1NC(=O)[C@@H](Cc2ccccc2)NC(=O)[C@@H]2CCCN2C(=O)[C@@H](Cc2ccccc2)N(C)C(=O)[C@@H]2CCC=NN2C(=O)[C@H]2CCC=NN2C1=O` (cyclo(I[dPiz(1,6-dehydro)][Piz(1,6-dehydro)][dNMeF]P[dF])) showed a pIC50 on Oxytocin receptor of 7.74.
`CC[C@H](C)[C@@H]1NC(=O)[C@@H](Cc2c[nH]c3ccccc23)NC(=O)[C@@H]2CCCN2C(=O)[C@@H](Cc2c[nH]cn2)N(C)C(=O)[C@@H]2CCCCN2C(=O)[C@H]2CCCCN2C1=O` (cyclo(I[dPip][Pip][dNMeH]P[dW])) showed a pIC50 on Vasopressin V1a receptor of 4.85.
For the compound `CC[C@H](C)[C@@H]1NC(=O)[C@@H](Cc2ccccc2)NC(=O)[C@@H]2CCCN2C(=O)[C@@H](Cc2ccccc2)N(C)C(=O)[C@@H]2CCCN2C(=O)[C@H]2CCCN2C1=O` (cyclo([dNMeF]P[dF]I[dP]P)), the pIC50 at Vasopressin V1a receptor was 5.48; at Vasopressin V2 receptor, 4.09.
For the compound `CC[C@H](C)[C@@H]1NC(=O)[C@@H](Cc2ccccc2)NC(=O)[C@@H]2CCCCN2C(=O)[C@@H](Cc2ccccc2)N(C)C(=O)[C@@H]2CCCCN2C(=O)[C@H]2CCCCN2C1=O`, the inhibition in test [1] amounted to 51%; in test [2] it was 48%.
Regarding `CC[C@H](C)[C@@H]1NC(=O)[C@@H](Cc2ccccc2)NC(=O)[C@@H]2CCCN2C(=O)[C@@H](Cc2ccccc2)N(C)C(=O)[C@@H]2CCCCN2C(=O)[C@H]2CCC=NN2C1=O` (cyclo(I[dPiz(1,6-dehydro)][Pip][dNMeF]P[dF])), the values for the pIC50 at Vasopressin V1a receptor, at Vasopressin V2 receptor and on Oxytocin receptor were 5.46, 5.92 and 7.82, respectively.
Turning to `CC[C@H](C)[C@@H]1NC(=O)[C@@H](Cc2ccccc2)NC(=O)[C@@H]2CCCN2C(=O)[C@@H](Cc2ccccc2)N(C)C(=O)[C@H](Cc2c[nH]cn2)NC(=O)[C@H]2CCCCN2C1=O`, the inhibition in test [1] came to 66%; in test [2], 65%.
As to `CC[C@H](C)[C@@H]1NC(=O)[C@@H](Cc2c[nH]c3ccccc23)NC(=O)[C@@H]2CCCN2C(=O)[C@@H](Cc2ccccc2)N(C)C(=O)[C@H](CCCN)NC(=O)[C@H]2CCC=NN2C1=O` (cyclo(I[dPiz(1,6-dehydro)][Orn][dNMeF]P[dW])), at Oxytocin receptor, the pIC50 is 7.60.
Turning to `CC[C@H](C)[C@@H]1NC(=O)[C@@H](Cc2ccccc2)NC(=O)[C@@H]2CCCN2C(=O)[C@@H](Cc2ccccc2)N(C)C(=O)[C@@H]2CCCCN2C(=O)[C@H]2CCCCN2C1=O` (cyclo(I[dPip][Pip][dNMeF]P[dF])), the pIC50 at Vasopressin V1a receptor is 5.49; on Vasopressin V2 receptor, 5.42; at Oxytocin receptor, 6.70.
In the case of `CCCC[C@@H]1NC(=O)[C@@H](Cc2c[nH]c3ccccc23)NC(=O)[C@@H]2CCCN2C(=O)[C@@H](Cc2c[nH]cn2)NC(=O)[C@@H]2CCCCN2C(=O)[C@H]2CCCCN2C1=O` (cyclo([Nle][dPip][Pip][dH]P[dW])), the pIC50 on Vasopressin V1a receptor was 5.89; on Vasopressin V2 receptor, 5.77.

Source of the values: ChEMBL document CHEMBL1125324, “Development of a novel class of cyclic hexapeptide oxytocin antagonists based on a natural product” (J Med Chem, 1992).
